Measured values published in the supplement of paper PMC10307832.

What was measured:
Assay in all cases: relative viability (nuclei count vs DMSO), 5 days (fraction); higher = more cells survive
NCI-H1623 = test system: NCI-H1623
In short: (§1)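 Lung cancer cell lines were pin-tool dosed in 1536-well plates on the day after seeding, with either a lone drug or a fixed anchor-drug dose plus five library-drug doses (not always all listed) in √10 steps. Nuclei were counted on 4× images after 5 days. Relative viability is the ratio of treated-well to vehicle-well nuclei counts, with each value a median of duplicate plates.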

NCI-H2342 = test system: NCI-H2342
In short: as §1

NCI-H522 = test system: NCI-H522
In short: as §1

NCI-H2009 = test system: NCI-H2009
In short: as §1

NCI-H661 = test system: NCI-H661
In short: as §1

NCI-H460 = test system: NCI-H460
In short: as §1

EBC-1 = test system: EBC-1
In short: as §1

NCI-H1299 = test system: NCI-H1299
In short: as §1

NCI-H1703 = test system: NCI-H1703
In short: as §1

A549 = test system: A549
In short: as §1

HCC-78 = test system: HCC-78
In short: as §1

Calu-6 = test system: Calu-6
In short: as §1

IA-LM = test system: IA-LM
In short: as §1

NCI-H1648 = test system: NCI-H1648
In short: as §1

Question: With `O=c1cc(-c2cccc3c2Sc2ccccc2S3)oc(N2CCOCC2)c1` + CCNC(=O)c1noc(-c2cc(C(C)C)c(O)cc2O)c1-c1ccc(CN2CCOCC2)cc1 [Luminespib] (partner 0.01 µM) as the molecule, how does the relative viability (NCI-H1623; first compound 0.08 µM) read?
Answer: Its relative viability is 0.615.

Question: What about the relative viability (NCI-H1623; first compound 0.253 µM) of the same molecule?
Answer: The relative viability was 0.589.

Question: And the relative viability (NCI-H1623; first compound 0.8 µM)?
Answer: The relative viability was 0.472.

Question: What about the relative viability (NCI-H1623; first compound 2.53 µM) of the same molecule?
Answer: The relative viability was 0.411.

Question: And the relative viability (NCI-H1623; first compound 8 µM)?
Answer: Its relative viability is 0.495.

Question: What about the relative viability (NCI-H2342; first compound 0.08 µM) of the same molecule?
Answer: Its relative viability is 0.676.

Question: And the relative viability (NCI-H2342; first compound 0.253 µM)?
Answer: Its relative viability is 0.68.

Question: And the relative viability (NCI-H2342; first compound 0.8 µM)?
Answer: Its relative viability is 0.715.

Question: And the relative viability (NCI-H2342; first compound 2.53 µM)?
Answer: Its relative viability is 0.663.

Question: And the relative viability (NCI-H2342; first compound 8 µM)?
Answer: Its relative viability is 0.731.

Question: And the relative viability (NCI-H522; first compound 0.08 µM)?
Answer: Its relative viability is 0.999.

Question: And the relative viability (NCI-H522; first compound 0.253 µM)?
Answer: The relative viability was 1.03.

Question: And the relative viability (NCI-H522; first compound 0.8 µM)?
Answer: The relative viability was 1.21.

Question: What about the relative viability (NCI-H522; first compound 2.53 µM) of the same molecule?
Answer: The relative viability was 1.13.

Question: What about the relative viability (NCI-H522; first compound 8 µM) of the same molecule?
Answer: Its relative viability is 1.08.

Question: What about the relative viability (NCI-H2009; first compound 0.08 µM) of the same molecule?
Answer: The relative viability was 1.07.

Question: What about the relative viability (NCI-H2009; first compound 0.253 µM) of the same molecule?
Answer: Its relative viability is 1.1.

Question: What about the relative viability (NCI-H2009; first compound 0.8 µM) of the same molecule?
Answer: Its relative viability is 1.01.

Question: What about the relative viability (NCI-H2009; first compound 2.53 µM) of the same molecule?
Answer: The relative viability was 0.939.

Question: What about the relative viability (NCI-H2009; first compound 8 µM) of the same molecule?
Answer: The relative viability was 1.

Question: What about the relative viability (NCI-H661; first compound 0.08 µM) of the same molecule?
Answer: The relative viability was 0.914.

Question: What about the relative viability (NCI-H661; first compound 0.253 µM) of the same molecule?
Answer: The relative viability was 0.939.

Question: And the relative viability (NCI-H661; first compound 0.8 µM)?
Answer: The relative viability was 0.893.

Question: And the relative viability (NCI-H661; first compound 2.53 µM)?
Answer: Its relative viability is 0.897.

Question: And the relative viability (NCI-H661; first compound 8 µM)?
Answer: Its relative viability is 0.891.

Question: What about the relative viability (NCI-H460; first compound 0.08 µM) of the same molecule?
Answer: The relative viability was 0.0288.

Question: And the relative viability (NCI-H460; first compound 0.253 µM)?
Answer: The relative viability was 0.0357.

Question: What about the relative viability (NCI-H460; first compound 0.8 µM) of the same molecule?
Answer: The relative viability was 0.0367.

Question: What about the relative viability (NCI-H460; first compound 2.53 µM) of the same molecule?
Answer: The relative viability was 0.0306.

Question: What about the relative viability (NCI-H460; first compound 8 µM) of the same molecule?
Answer: The relative viability was 0.0332.

Question: `O=c1cc(N2CCOCC2)oc2c(-c3cccc4c3sc3ccccc34)cccc12` + O=C(c1cc(Cc2n[nH]c(=O)c3ccccc23)ccc1F)N1CCN(C(=O)C2CC2)CC1 [Olaparib] (partner 8 µM) was tested. Which relative viability (EBC-1; first compound 0.01 µM) did it give?
Answer: Its relative viability is 0.709.

Question: What about the relative viability (EBC-1; first compound 0.03162 µM) of the same molecule?
Answer: The relative viability was 0.667.

Question: What about the relative viability (EBC-1; first compound 0.1 µM) of the same molecule?
Answer: The relative viability was 0.757.

Question: And the relative viability (EBC-1; first compound 0.3162 µM)?
Answer: Its relative viability is 0.788.

Question: What about the relative viability (EBC-1; first compound 1 µM) of the same molecule?
Answer: The relative viability was 0.624.

Question: And the relative viability (NCI-H1299; first compound 0.01 µM)?
Answer: Its relative viability is 0.961.

Question: What about the relative viability (NCI-H1299; first compound 0.03162 µM) of the same molecule?
Answer: The relative viability was 0.946.

Question: And the relative viability (NCI-H1299; first compound 0.1 µM)?
Answer: The relative viability was 0.985.

Question: What about the relative viability (NCI-H1299; first compound 0.3162 µM) of the same molecule?
Answer: Its relative viability is 0.974.

Question: What about the relative viability (NCI-H1299; first compound 1 µM) of the same molecule?
Answer: Its relative viability is 0.917.

Question: What about the relative viability (NCI-H1703; first compound 0.01 µM) of the same molecule?
Answer: The relative viability was 0.548.

Question: And the relative viability (NCI-H1703; first compound 0.03162 µM)?
Answer: Its relative viability is 0.274.

Question: And the relative viability (NCI-H1703; first compound 0.1 µM)?
Answer: The relative viability was 0.411.

Question: What about the relative viability (NCI-H1703; first compound 0.3162 µM) of the same molecule?
Answer: The relative viability was 0.446.

Question: And the relative viability (NCI-H1703; first compound 1 µM)?
Answer: Its relative viability is 0.511.

Question: And the relative viability (A549; first compound 0.01 µM)?
Answer: The relative viability was 0.429.

Question: And the relative viability (A549; first compound 0.03162 µM)?
Answer: The relative viability was 0.31.

Question: What about the relative viability (A549; first compound 0.1 µM) of the same molecule?
Answer: Its relative viability is 0.295.

Question: What about the relative viability (A549; first compound 0.3162 µM) of the same molecule?
Answer: The relative viability was 0.356.

Question: What about the relative viability (A549; first compound 1 µM) of the same molecule?
Answer: The relative viability was 0.268.

Question: What about the relative viability (HCC-78; first compound 0.01 µM) of the same molecule?
Answer: Its relative viability is 0.783.

Question: And the relative viability (HCC-78; first compound 0.03162 µM)?
Answer: Its relative viability is 0.687.

Question: What about the relative viability (HCC-78; first compound 0.1 µM) of the same molecule?
Answer: The relative viability was 0.644.

Question: What about the relative viability (HCC-78; first compound 0.3162 µM) of the same molecule?
Answer: Its relative viability is 0.835.

Question: And the relative viability (HCC-78; first compound 1 µM)?
Answer: Its relative viability is 0.828.

Question: And the relative viability (Calu-6; first compound 0.01 µM)?
Answer: Its relative viability is 0.614.

Question: And the relative viability (Calu-6; first compound 0.03162 µM)?
Answer: Its relative viability is 0.606.

Question: What about the relative viability (Calu-6; first compound 0.1 µM) of the same molecule?
Answer: The relative viability was 0.602.

Question: What about the relative viability (Calu-6; first compound 0.3162 µM) of the same molecule?
Answer: Its relative viability is 0.484.

Question: And the relative viability (Calu-6; first compound 1 µM)?
Answer: The relative viability was 0.657.

Question: And the relative viability (IA-LM; first compound 0.01 µM)?
Answer: The relative viability was 0.883.

Question: And the relative viability (IA-LM; first compound 0.03162 µM)?
Answer: Its relative viability is 0.941.

Question: And the relative viability (IA-LM; first compound 0.1 µM)?
Answer: Its relative viability is 0.766.

Question: And the relative viability (IA-LM; first compound 0.3162 µM)?
Answer: The relative viability was 0.793.

Question: And the relative viability (IA-LM; first compound 1 µM)?
Answer: Its relative viability is 0.769.

Question: What about the relative viability (NCI-H2342; first compound 0.01 µM) of the same molecule?
Answer: Its relative viability is 0.418.

Question: And the relative viability (NCI-H2342; first compound 0.03162 µM)?
Answer: The relative viability was 0.434.

Question: And the relative viability (NCI-H2342; first compound 0.1 µM)?
Answer: The relative viability was 0.438.

Question: What about the relative viability (NCI-H2342; first compound 0.3162 µM) of the same molecule?
Answer: The relative viability was 0.457.

Question: What about the relative viability (NCI-H2342; first compound 1 µM) of the same molecule?
Answer: The relative viability was 0.428.

Question: What about the relative viability (NCI-H522; first compound 0.01 µM) of the same molecule?
Answer: The relative viability was 0.59.

Question: What about the relative viability (NCI-H522; first compound 0.03162 µM) of the same molecule?
Answer: The relative viability was 0.696.

Question: What about the relative viability (NCI-H522; first compound 0.1 µM) of the same molecule?
Answer: Its relative viability is 0.739.

Question: What about the relative viability (NCI-H522; first compound 0.3162 µM) of the same molecule?
Answer: The relative viability was 0.602.

Question: And the relative viability (NCI-H522; first compound 1 µM)?
Answer: The relative viability was 0.572.

Question: What about the relative viability (NCI-H1648; first compound 0.03162 µM) of the same molecule?
Answer: The relative viability was 0.787.

Question: And the relative viability (NCI-H1648; first compound 0.1 µM)?
Answer: The relative viability was 1.28.

Question: What about the relative viability (NCI-H1648; first compound 0.3162 µM) of the same molecule?
Answer: Its relative viability is 0.936.

Question: And the relative viability (NCI-H1648; first compound 1 µM)?
Answer: Its relative viability is 1.17.

Question: What about the relative viability (NCI-H2009; first compound 0.01 µM) of the same molecule?
Answer: Its relative viability is 0.718.

Question: And the relative viability (NCI-H2009; first compound 0.03162 µM)?
Answer: Its relative viability is 0.651.

Question: What about the relative viability (NCI-H2009; first compound 0.1 µM) of the same molecule?
Answer: Its relative viability is 0.592.

Question: And the relative viability (NCI-H2009; first compound 0.3162 µM)?
Answer: Its relative viability is 0.652.

Question: And the relative viability (NCI-H2009; first compound 1 µM)?
Answer: The relative viability was 0.673.

Question: What about the relative viability (NCI-H661; first compound 0.01 µM) of the same molecule?
Answer: Its relative viability is 0.744.

Question: What about the relative viability (NCI-H661; first compound 0.03162 µM) of the same molecule?
Answer: The relative viability was 0.725.

Question: And the relative viability (NCI-H661; first compound 0.1 µM)?
Answer: The relative viability was 0.709.

Question: What about the relative viability (NCI-H661; first compound 0.3162 µM) of the same molecule?
Answer: Its relative viability is 0.732.

Question: What about the relative viability (NCI-H661; first compound 1 µM) of the same molecule?
Answer: Its relative viability is 0.721.

Question: And the relative viability (NCI-H460; first compound 0.01 µM)?
Answer: Its relative viability is 0.452.

Question: What about the relative viability (NCI-H460; first compound 0.03162 µM) of the same molecule?
Answer: Its relative viability is 0.37.

Question: And the relative viability (NCI-H460; first compound 0.1 µM)?
Answer: The relative viability was 0.452.

Question: What about the relative viability (NCI-H460; first compound 0.3162 µM) of the same molecule?
Answer: The relative viability was 0.403.

Question: What about the relative viability (NCI-H460; first compound 1 µM) of the same molecule?
Answer: Its relative viability is 0.406.
